# Measured values reported in PubChem BioAssay AID489041 (Sanford-Burnham Center for Chemical Genomics, 2010).
# Calls of active or inactive are those of the source. No rule for the calls is given here.
# System: HEK-293T NF-kB luciferase reporter counterscreen, luminescence
# Experiment: inhibitors of HEK-293T NF-kB luciferase – HEK-293T cells, luminescence, counter-screen for T-cell antigen receptor NF-kB inhibitors, dose response (AID 489041)
row,SMILES,IC50
1,Cc1ccsc1/C=N/NC(=O)c1cc(-c2ccncc2)nc2ccccc12,2.94 µM
2,CCCC(=O)NC(c1ccc(C(C)C)cc1)c1ccc2cccnc2c1O (stereo not drawn),0.66 µM
3,COc1ccc(C(NC(=O)C(C)C)c2ccc3cccnc3c2O)cc1 (stereo not drawn),> 80 µM (inactive)
4,COc1ccc(/C=N/Nc2cc(C)nc3ccc(OC)cc23)c(OC)c1,25.7 µM (inactive)
5,C=C(C=O)C[C@@H]1C[C@H](O)C2OC3C[C@]4(C)OC5/C=C\CC6OC7C(CC=CCC6OC5CCCC4OC3CC2O1)OC1CC2OC3CC(=O)OC3C[C@@H](C)C[C@@]2(C)OC1C[C@@H]7C (stereo partly drawn),> 80 µM (inactive)
6,COc1cc(Nc2ccc(C)cc2)c([N+](=O)[O-])nc1[N+](=O)[O-],19.9 µM
7,COc1ccc(-n2nnnc2-c2ccccc2)cc1,> 80 µM (inactive)
8,O=C(Nc1nc(-c2ccccn2)cs1)c1ccc(Cl)s1,4.44 µM
9,Cc1cc(C)c(S(=O)(=O)Nc2ccc3c4c(cccc24)CC3)c(C)c1,1.73 µM
10,COc1cc(NCCCCCCCN)c2ncccc2c1,11.8 µM
11,CCC(=O)NC(c1cccs1)c1ccc2cccnc2c1O (stereo not drawn),1.61 µM
12,c1ccc2c(c1)CCN(c1ncnc3c1[nH]c1ccccc13)C2,1.43 µM
13,O=C(c1ccc(CS(=O)c2ccccc2Cl)o1)N1CCN(c2ccccn2)CC1 (stereo not drawn),18.8 µM
14,C[C@]12CC[C@H]3[C@@H](CC[C@]4(O)C[C@@H](O)CC[C@]34C=O)[C@@]1(O)CC[C@@H]2C1=CC(=O)OC1,0.34 µM
15,O=S1(=O)C=C(Sc2nc3ccccc3s2)c2ccccc21,5.57 µM
16,COc1ccc(Nc2ncnc3ccc(Br)cc23)c(OC)c1,12 µM
17,CC(C)CC[n+]1ccccc1/C=C/c1ccc(N(C)C)cc1,1.62 µM
18,Cc1ccc(S(=O)(=O)Nc2ccccc2-c2ccccc2)cc1,8.86 µM
19,Cc1c(C)c2cccnc2c2ncccc12,23.1 µM (inactive)
20,Clc1cccc(Cl)c1/C=N/Nc1c(Cl)cncc1Cl,36.7 µM (inactive)
21,CCCCCCCn1c2c(c(=N)c3ccccc31)CCC2,0.99 µM
22,O=C(N/N=C/c1c(O)ccc2ccccc12)c1cccc(C(F)(F)F)c1,3.01 µM

row,SMILES,IC50
1,NS(=O)(=O)c1ccc(Sc2nc3ccccc3s2)c([N+](=O)[O-])c1,7.35 µM
2,N/C(=N\OCc1ccc([N+](=O)[O-])cc1)c1ccccn1,1.78 µM
3,O=c1cc(-c2cccc(F)c2)[nH]c2ccccc12,1.05 µM
4,CC(C)c1oc(=O)cc2c1[C@@H](O)[C@H]1OC(=O)[C@@]3(C)C[C@@H](O)[C@@H](O)[C@@]2(C)C13 (stereo partly drawn),0.75 µM
5,N=c1ccn(CC(=O)c2ccc(-c3ccccc3)cc2)cc1,5.16 µM
6,CCOc1cccc(-c2nnc3n2N=C(c2cc(OC)ccc2OC)CS3)c1,4.82 µM
7,COc1ccc(CC(=O)Nc2nc(-c3ccc(F)c(F)c3)cs2)cc1OC,2.87 µM
8,COc1ccc(CNS(=O)(=O)c2cc(-c3cc(C)no3)ccc2C(C)C)cc1,10.9 µM
9,CCOc1ccccc1NC(=O)Cn1nnc(C(=O)NCc2ccco2)c1N,26.3 µM (inactive)
10,CCOC(=O)c1[nH]c(C=O)c(C(=O)OCC)c1C,15.5 µM
11,O=C(Nc1ccncc1)c1ccc(Cl)c(S(=O)(=O)N2CCc3ccccc32)c1,1.49 µM
12,CCN(CC)c1ccc(/C=N/NC(=O)c2cccc(S(=O)(=O)Nc3ccccc3OC)c2)c(O)c1,0.23 µM
13,CCOc1ccccc1NC(=O)CN(c1ccc(OC)cc1)S(=O)(=O)c1c(C)noc1C,16.9 µM
14,Clc1cccc(Cl)c1OCCOCCNCc1ccccc1,68.4 µM (inactive)
15,Cc1cccc(N=Nc2ccc(O)c3ncccc23)c1,> 80 µM (inactive)
16,C[C@@H]1C=CC(=O)O[C@@H]1c1ccc(Cl)cc1,34 µM (inactive)
17,COc1cccc2sc(Nc3nnc(-c4ccccc4Cl)o3)nc12,> 80 µM (inactive)
18,O=C(N/N=C\c1c(O)ccc2ccccc12)c1ccc(S(=O)(=O)N2CCCCC2)cc1,> 80 µM (inactive)
19,COc1cccc(/C=N/Nc2ncnc3c2ncn3Cc2ccccc2)c1O,0.25 µM
20,O=C(CNC(=O)c1ccco1)N=Nc1c(O)n(CCc2ccccc2)c2ccccc12,5.17 µM
21,Clc1ccc2c(c1)C(C1=NCCN1)c1ccccc1CS2 (stereo not drawn),> 80 µM (inactive)
